Assay results as given in article PMC12250071, “Cloning, Expression and Functional Characterization of V. vinifera CAT2 Arginine Transporter” (International Journal of Molecular Sciences, 2025).

Molecular target: T1, VvCAT2
T1 construct: gene CAT2; full-length, C-terminal 6His, reconstituted in proteoliposomes
Assay: competitive inhibition of [3H]arginine uptake in proteoliposomes with purified transporter (Lineweaver-Burk); also transported as [3H]ornithine
Format: biochemical, Vitis vinifera

NCCC[C@H](N)C(=O)O [ornithine]
Ki: 2200 ± 500 µM
